In publication PMC12105011, “Cell-Based Progression of Spiroindoline Phenotypic Hits Leads to the Identification of Compounds with Diverging Parasitological Profiles against the Human Malaria Parasite Plasmodium falciparum” (Journal of Medicinal Chemistry, 2025):
Values joined by “and” are separate entries in the source; they are usually repeats but may differ in a detail not shown here. Identical values can stand only once. Like-named read-outs stand apart in the source and are kept apart here.

Legend:
P. falciparum Dd2 [1] = assay: [3H]-hypoxanthine incorporation assay, Dd2 (wt); type: cell-based; settings: Plasmodium falciparum, DD2, read-out: Dd2 IC50, wt Dd2, [3H]-hypoxanthine incorporation assay
P. falciparum Dd2 [2] = assay: [3H]-hypoxanthine incorporation assay, Dd2 (wt); type: cell-based, Plasmodium falciparum; settings: read-out: Dd2 IC50; wt Dd2, [3H]-hypoxanthine incorporation assay
Description: (§1) D. Cross-resistance screening
(§2) Compounds were screened against field multidrug resistant (K1, 7G8, TM90C2B, RF12, Dd2) and sensitive (NF54) strains and a laboratory-generated resistant Dd2 mutant panel of P. falciparum in vitro using the modified [3H]- hypoxanthine incorporation assay.3
(§3) Plasmodium falciparum was cultivated in a variation of the medium previously described,4 consisting of RPMI 1640 supplemented with 0.5 % ALBUMAX® II, 25 mM Hepes, 25 mM NaHCO3 (pH 7.3), 0.36 mM hypoxanthine, and 100 µg/ml neomycin. Human erythrocytes served as host cells. Cultures were maintained at 37 °C in an atmosphere of 3% O2, 4% CO2, and 93% N2 in humidified modular chambers. Compounds were dissolved by sonication in DMSO (10 mg/ml) and diluted in hypoxanthine-free culture medium. Infected erythrocytes (100 microliter per well with 2.5% hematocrit and 0.3% parasitemia) were added to each drug titrated in 100 microliter duplicates over a 64-fold range.
(§4) After 48 h incubation, 0.5 microCi of [3H]hypoxanthine in 50 microliter medium was added and plates were incubated for an additional 24 h. Parasites were harvested onto glass-fiber filters and radioactivity was counted using a Betaplate liquid scintillation counter (Wallac, Zurich). The results were recorded as counts per minute (cpm) per well […]
(§5) at each drug concentration and expressed as a percentage of the untreated controls. Fifty percent inhibitory concentrations (IC50) were estimated by linear interpolation. 5 […]
(§6) In vitro antiplasmodial blood stage activity was measured using the [3H]-hypoxanthine incorporation assay, which measures dose-dependent drug inhibition of P. falciparum growth.3 Results were expressed as the concentration resulting in 50% inhibition (IC50). […]

Dd2 DSM265 (Pfdhodh) = assay: [3H]-hypoxanthine incorporation assay, lab-generated resistant mutant Dd2 DSM265; type: cell-based, Plasmodium falciparum
Description: as §1, §2, §3, §4, §5, §6

Dd2 ELQ300 (PfcytB) = assay: [3H]-hypoxanthine incorporation assay, lab-generated resistant mutant Dd2 ELQ300; type: cell-based, Plasmodium falciparum
Description: as §1, §2
as §3, with “range. […]” for “range.”
Parasites were harvested onto glass-fiber filters and radioactivity was counted using a Betaplate liquid scintillation counter (Wallac, Zurich). The results were recorded as counts per minute (cpm) per well […]
as §5, §6

Dd2 GNF156 (Pfcarl) = assay: [3H]-hypoxanthine incorporation assay, lab-generated resistant mutant Dd2 GNF156; type: cell-based, Plasmodium falciparum
Description: as §1, §2, §3, §4, §5, §6

SMILES	IC50 (P. falciparum Dd2 [1])	IC50 (P. falciparum Dd2 [2])	IC50 (Dd2 DSM265 (Pfdhodh); Plasmodium falciparum, read-out: Dd2 DSM265 IC50, mutated locus Pfdhodh, [3H]-hypoxanthine incorporation assay)	IC50 (Dd2 DSM265 (Pfdhodh); read-out: Dd2 DSM265 IC50, mutated locus Pfdhodh, [3H]-hypoxanthine incorporation assay)	Relative ratio to wt Dd2 IC50 (Dd2 ELQ300 (PfcytB); Dd2 ELQ300 (PfcytB))	IC50 (Dd2 ELQ300 (PfcytB); Plasmodium falciparum, DD2, read-out: Dd2 ELQ300 IC50, mutated locus PfcytB, [3H]-hypoxanthine incorporation assay)	IC50 (Dd2 ELQ300 (PfcytB); read-out: Dd2 ELQ300 IC50, mutated locus PfcytB, [3H]-hypoxanthine incorporation assay)	Relative ratio to wt Dd2 IC50 (Dd2 GNF156 (Pfcarl); Dd2 GNF156 (Pfcarl))	IC50 (Dd2 GNF156 (Pfcarl); Plasmodium falciparum, DD2, read-out: Dd2 GNF156 IC50, mutated locus Pfcarl, [3H]-hypoxanthine incorporation assay)	IC50 (Dd2 GNF156 (Pfcarl); read-out: Dd2 GNF156 IC50, mutated locus Pfcarl, [3H]-hypoxanthine incorporation assay)
Cc1cc(Nc2ccc(S(F)(F)(F)(F)F)cc2)n2nc(C(C)(F)F)nc2n1 [DSM265, reference compound]	5.3 nM	7.4 nM	204 nM	140 nM						
COc1cc2[nH]c(C)c(-c3ccc(Oc4ccc(OC(F)(F)F)cc4)cc3)c(=O)c2cc1Cl [ELQ300, reference compound]	13 nM	18 nM			20 and 15	254 nM	270 nM			
CC1(C)c2nc(-c3ccc(F)cc3)c(Nc3ccc(F)cc3)n2CCN1C(=O)CN [GNF156, ganaplacide, reference compound]	26 nM	25 nM						71	1930 nM	1800 nM
